target: T1, GCase (Homo sapiens, UniProt P04062); assay: activation of GCase in a live cell PFB assay in HELA cells; type: cell-based; conditions: EC50 given as range classes
T1 construct: endogenous in cells; host or cells: HeLa cells
T1 sequence (P04062 40-536): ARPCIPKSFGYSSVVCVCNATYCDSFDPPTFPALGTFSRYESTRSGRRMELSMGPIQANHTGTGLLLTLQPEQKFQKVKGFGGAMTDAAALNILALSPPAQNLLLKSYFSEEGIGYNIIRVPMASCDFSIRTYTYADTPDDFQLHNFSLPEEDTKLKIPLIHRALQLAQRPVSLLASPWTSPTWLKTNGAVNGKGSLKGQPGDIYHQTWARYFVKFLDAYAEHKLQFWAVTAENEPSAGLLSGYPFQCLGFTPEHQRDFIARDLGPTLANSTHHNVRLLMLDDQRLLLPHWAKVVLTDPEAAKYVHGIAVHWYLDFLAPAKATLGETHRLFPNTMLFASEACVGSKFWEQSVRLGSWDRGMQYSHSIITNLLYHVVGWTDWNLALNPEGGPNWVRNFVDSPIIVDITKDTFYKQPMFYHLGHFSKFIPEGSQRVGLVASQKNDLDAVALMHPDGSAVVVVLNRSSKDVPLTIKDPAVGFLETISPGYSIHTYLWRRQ
Experimental: Exemplary compounds were evaluated for activation of GCase in a live cell PFB assay in HELA cells (essentially as described in Ysselstein et al., “LRRK2 kinase activity regulates lysosomal glucocerebrosidase in neurons derived from Parkinson's disease patients” Nature Communications (2019) 10:5570). […] EC50 ranges: A: <10 μM; B: >10-50 μM; C: >50-100 μM; D: >100 μM.

| Compound | EC50 |
| --- | --- |
| O=C1N(c2cncc(C(F)(F)F)c2)CCC12CCN(c1cnc3cnn(CC(F)F)c3n1)C2 (centres unmarked) [Cmpd 204] | 10 to 50 µM |
| Cn1c(N2CCC3(CN(c4ccnc(C(F)(F)F)n4)C3)C2)nc2c(cnn2CC(F)F)c1=O [Cmpd 991] | < 10 µM |
| CCn1c(=O)n(C2COC2)c2nc(N3CCC4(CN(c5ccnc(C(F)(F)F)c5)C4)C3)cnc21 [Cmpd 981] | 10 to 50 µM |
| Cc1nc(N2CCC3(CC2)CN(c2cnc4cnn(CC(F)F)c4n2)C3)cc(C(F)(F)F)n1 [Cmpd 588] | < 10 µM |
| Cc1nc(N2CC3(CCN(c4cnc5c(C)nn(CC(F)(F)F)c5n4)CC3)C2)cc(C(F)(F)F)n1 [Cmpd 610] | < 10 µM |
| Cc1nn(CC(F)F)c2nc(N3CCC4(CN(c5cnc(C(F)(F)F)nc5)C4)C3)ncc12 [Cmpd 433] | 10 to 50 µM |
| O=C1CC2(CN(c3ccnc(C(F)(F)F)c3)C2)CN1c1ncc2cnn(CC(F)F)c2n1 [Cmpd 1005] | 10 to 50 µM |
| O=C1CC2(CCN(c3cnc4cnn(CC(F)F)c4n3)C2)CCN1c1ccc(C(F)(F)F)cn1 (centres unmarked) [Cmpd 791] | 50 to 100 µM |
| Cn1c(N2CC3(CC2=O)CN(c2ccnc(C(F)(F)F)c2)C3)nc2c(cnn2CC(F)F)c1=O [Cmpd 998] | 10 to 50 µM |
| O=S(=O)(c1ccccc1Cl)N1CC2(CCN(c3cnc4cnn(CC(F)F)c4n3)C2)C1 [Cmpd 393] | 10 to 50 µM |
| O=C1CC2(CN1c1ccc(C(F)(F)F)nc1)C1CC2CN(c2cnc3cnn(CC(F)F)c3n2)C1 (centres unmarked) [Cmpd 801] | 50 to 100 µM |
| FC(F)Cn1ncc2ncc(N3CCC4(CCCN(c5ccc(C(F)(F)F)cn5)C4)CC3)nc21 [Cmpd 213] | 10 to 50 µM |
| FC(F)(F)Cn1ncc2ncc(N3CCC4(CN(c5cnc(C(F)(F)F)nc5)C4)C3)nc21 [Cmpd 426] | 10 to 50 µM |
| O=C1CC2(CN(c3ccnc(C(F)(F)F)c3)C2)CN1c1ncc2cnn(C3COC3)c2n1 [Cmpd 1008] | 10 to 50 µM |
| FC(F)(F)Cn1ncc2cnc(N3CCC4(CN(c5cnc(C(F)(F)F)nc5)C4)C3)nc21 [Cmpd 432] | < 10 µM |
| CCc1cnc(C(F)(F)F)cc1N1CC2(CCN(c3cnc4cnn(CC(F)F)c4n3)C2)C1 [Cmpd 1032] | < 10 µM |
| Cn1c(N2CCC3(CN(c4cnc(C(F)(F)F)nc4)C3)C2)nc2c(cnn2CC(F)F)c1=O [Cmpd 988] | < 10 µM |
| Cc1nc(N2CCC3(CCN(c4cc5c(cn4)cnn5CC(F)F)CC3)C2)cc(C(F)(F)F)n1 [Cmpd 633] | < 10 µM |
| Cc1nn(C2COC2)c2nc(N3CCC4(CN(c5ccnc(C(F)(F)F)c5)C4)C3=O)cnc12 [Cmpd 1002] | < 10 µM |
| Cn1c(N2CCC3(CCN(c4ccnc(C(F)(F)F)n4)C3)CC2)nc2c(cnn2CC(F)F)c1=O [Cmpd 1014] | < 10 µM |

same assay, conditions: activation of GCase, EC50 ranges

| Compound | EC50 |
| --- | --- |
| FC(F)Cn1ncc2ncc(N3CCC4(CCN(c5cccc(C(F)(F)F)n5)C4)CC3)nc21 [Compound 143, 8-[1-(2,2-difluoroethyl)-1H-pyrazolo[3,4-b]pyrazin-6-yl]-2-[6-(trifluoromethyl)pyridin-2-yl]-2,8-diazaspiro[4.5]decane] | < 10 µM |
| Cc1nn(CC(F)F)c2nc(N3CCC4(CCN(c5cnc(C(F)(F)F)nc5)C4)C3)ncc12 (centres unmarked) [Cmpd 547] | 10 to 50 µM |
| FC(F)Cn1ncc2ncc(N3CCC4(CCC4COc4cccc(C(F)(F)F)n4)CC3)nc21 (centres unmarked) [Compound 82, 7-[1-(2,2-difluoroethyl)-1H-pyrazolo[3,4-b]pyrazin-6-yl]-1-({[6-(trifluoromethyl)pyridin-2-yl]oxy}methyl)-7-azaspiro[3.5]nonane] | 10 to 50 µM |
| O=C1N(c2ccnc(C(F)(F)F)n2)CCC12CCN(c1ncc3cnn(CC(F)F)c3n1)CC2 [Cmpd 900] | < 10 µM |
| O=C1N(c2cnc3cnn(CC(F)F)c3n2)CCC12CCN(c1cncc(C(F)(F)F)c1)CC2 [Compound 122, 2-[1-(2,2-difluoroethyl)-1H-pyrazolo[3,4-b]pyrazin-6-yl]-8-[5-(trifluoromethyl)pyridin-3-yl]-2,8-diazaspiro[4.5]decan-1-one] | < 10 µM |
| CCN1C(=O)N(c2ccc(C(F)(F)F)nc2)C(=O)C12CCN(c1ncc3cnn(CC(F)F)c3n1)CC2 [Cmpd 873] | 10 to 50 µM |
| O=C1N(c2ccc(C(F)(F)F)cn2)C2(CC2)CC12CCN(c1cnc3cnn(CC(F)F)c3n1)CC2 [Cmpd 312] | 50 to 100 µM |
| O=C1CC2(CCN(c3cnc4cnn(C5COC5)c4n3)CC2)CN1c1cncc(C(F)(F)F)n1 [Cmpd 277] | 10 to 50 µM |
| O=C1N(c2nnc(C(F)(F)F)s2)CCC12CCN(c1cnc3cnn(CC(F)F)c3n1)CC2 [Cmpd 840] | < 10 µM |
| O=C1CC2(CCN1c1cnc3cnn(CC(F)F)c3n1)CN(c1cccc(C(F)(F)F)n1)C2 [Cmpd 667] | 50 to 100 µM |
| FC(F)Cn1ncc2ncc(N3CC4(CCN(c5cnc(C(F)(F)F)cn5)CC4)C3)nc21 [Cmpd 770] | < 10 µM |
| CCN1C(=O)N(c2ccc(C(F)(F)F)nc2)C(=O)C12CCN(c1ncc3c(C)nn(C4COC4)c3n1)CC2 [Cmpd 878] | 10 to 50 µM |
| FC(F)Cn1ncc2ncc(N3CCCC4(CC(Oc5cc(C(F)(F)F)ccn5)C4)C3)nc21 (centres unmarked) [Compound 29, 6-[1-(2,2-difluoroethyl)-1H-pyrazolo[3,4-b]pyrazin-6-yl]-2-{[4-(trifluoromethyl)pyridin-2-yl]oxy}-6-azaspiro[3.5]nonane] | 10 to 50 µM |
| CCn1c(N2CCC3(CCN(c4cc(C)nc(C(F)(F)F)n4)C3)CC2)nc2c(cnn2CC(F)F)c1=O [Cmpd 1105] | < 10 µM |
| FC(F)(F)c1ncc(N2CC3(CCN(c4ncc5cnn(C6CCCCO6)c5n4)C3)C2)cn1 (centres unmarked) [Cmpd 469] | > 100 µM |
| Cc1nc(N2CC3(CCN(c4nc5c(cnn5CC(F)F)c(=O)n4C)C3)C2)cc(C(F)(F)F)n1 [Cmpd 1084] | < 10 µM |
| O=C1CC2(CCN(c3cnc4cnn(C5COC5)c4n3)CC2)CN1c1ccc(C(F)(F)F)nc1 [Cmpd 856] | 10 to 50 µM |
| FC(F)Cn1ncc2ncc(N3CC4(CCCN(c5ccc(C(F)(F)F)nc5)C4)C3)nc21 [Compound 20, 2-[1-(2,2-difluoroethyl)-1H-pyrazolo[3,4-b]pyrazin-6-yl]-6-[6-(trifluoromethyl)pyridin-3-yl]-2,6-diazaspiro[3.5]nonane] | 10 to 50 µM |

| Compound | EC50 |
| --- | --- |
| O=C1N(c2ccc(C(F)(F)F)nc2)c2ccccc2C12CCN(c1cnc3cnn(CC(F)F)c3n1)CC2 [Cmpd 261] | 10 to 50 µM |
| CN(C)C(=O)c1cccc(N2CCC3(CCN(c4cnc5cnn(CC(F)F)c5n4)CC3)C2=O)n1 [Cmpd 671] | < 10 µM |
| O=C1N(c2cnc3cnn(CC(F)F)c3n2)CCC12CCN(c1cccc(C(F)(F)F)n1)CC2 [Compound 99, 2-[1-(2,2-difluoroethyl)-1H-pyrazolo[3,4-b]pyrazin-6-yl]-8-[6-(trifluoromethyl)pyridin-2-yl]-2,8-diazaspiro[4.5]decan-1-one] | < 10 µM |
| CC[C@H]1N(c2cnc(C(F)(F)F)nc2)C[C@]12CCN(c1cnc3cnn(CC(F)F)c3n1)C2 [Cmpd 1048] | 10 to 50 µM |
| Cc1nn(C2COC2)c2nc(N3CCC4(CN(c5ccnc(C(F)(F)F)c5)C4)C3)cnc12 [Cmpd 931] | 10 to 50 µM |
| Cn1c(N2CCC3(CCN(c4cnc5cnn(CC(F)F)c5n4)CC3)C2=O)cc(=O)cc1C(F)(F)F [Cmpd 666] | < 10 µM |
| FC(F)(F)c1cc(N2CC3(CCN(c4ncc5cnn(C6COC6)c5n4)C3)C2)ccn1 [Cmpd 962] | 10 to 50 µM |
| Cc1cc(N2CC3(CCN(c4cnc5c(C)nn(CC(F)F)c5n4)C3)C2)nc(C)n1 [Cmpd 640] | 10 to 50 µM |
| FC(F)Cn1ncc2ncc(N3CC4(CN(c5ccc(C(F)(F)F)cn5)CCO4)C3)nc21 [Compound 172, 2-[1-(2,2-difluoroethyl)-1H-pyrazolo[3,4-b]pyrazin-6-yl]-8-[5-(trifluoromethyl)pyridin-2-yl]-5-oxa-2,8-diazaspiro[3.5]nonane] | 10 to 50 µM |
| O=C1N(c2cc(C(F)(F)F)ccn2)C(=O)C2(CCN(c3cnc4cnn(CC(F)F)c4n3)CC2)N1CCC1CC1 [Cmpd 712] | 10 to 50 µM |
| O=C(c1ccc(C(F)(F)F)nc1)N1CC2(CCN(c3cnc4cnn(CC(F)F)c4n3)CC2)C1 [Cmpd 327] | 10 to 50 µM |
| O=C(c1cnc(C(F)(F)F)nc1)N1CCC2(CC1)CN(c1cnc3cnn(CC(F)F)c3n1)C2 [Cmpd 329] | 10 to 50 µM |
| CCCn1c(N2CCC3(CN(c4cc(C(F)(F)F)nc(C)n4)C3)C2)nc2c(cnn2CC(F)F)c1=O [Cmpd 1111] | 10 to 50 µM |
| CCOc1nn(CC(F)F)c2nc(N3CCC4(CN(c5cc(C(F)(F)F)nc(C)n5)C4)C3)cnc12 [Cmpd 935] | 50 to 100 µM |
| FC(F)Cn1ncc2cnc(N3CCC4(C3)CN(c3nnc(C(F)(F)F)s3)C4)nc21 [Cmpd 1051] | 50 to 100 µM |
| Cc1nn(C2COC2)c2nc(N3CCC4(CC3)CCN(c3ccc(C(F)(F)F)nc3)C4=O)ncc12 [Cmpd 884] | 10 to 50 µM |
| FC(F)Cn1ncc2ncc(N3CCC4(CCN(c5ccc(C(F)(F)F)nc5)CC4)C3)nc21 [Compound 152, 2-[1-(2,2-difluoroethyl)-1H-pyrazolo[3,4-b]pyrazin-6-yl]-8-[6-(trifluoromethyl)pyridin-3-yl]-2,8-diazaspiro[4.5]decane] | < 10 µM |
| FC(F)Cn1ncc2ncc(N3CCC4(CC3)CN(c3ccc(C(F)(F)F)cn3)C4)nc21 [Compound 78, 7-[1-(2,2-difluoroethyl)-1H-pyrazolo[3,4-b]pyrazin-6-yl]-2-[5-(trifluoromethyl)pyridin-2-yl]-2,7-diazaspiro[3.5]nonane] | 10 to 50 µM |
